Converted amounts (≈) assume the structure as drawn.
What was measured:
Format in all cases: functional
Staphylococcus aureus [1] = experiment: Antibacterial activity against methicillin-susceptible Staphylococcus aureus assessed as percent resistant isolates by broth microdilution method
Staphylococcus aureus [2] = experiment: Antibacterial activity against methicillin-resistant Staphylococcus aureus assessed as percent resistant isolates by broth microdilution method
Staphylococcus aureus [3] = experiment: Antibacterial activity against methicillin-susceptible Staphylococcus aureus by broth microdilution method
Staphylococcus aureus [4] = experiment: Antibacterial activity against methicillin-resistant Staphylococcus aureus by broth microdilution method
Staphylococcus [5] = experiment: Antibacterial activity against methicillin-susceptible coagulase-negative Staphylococcus by broth microdilution method
Staphylococcus [6] = experiment: Antibacterial activity against methicillin-resistant coagulase-negative Staphylococcus by broth microdilution method
Enterococcus faecalis [7] = experiment: Antibacterial activity against vancomycin-susceptible Enterococcus faecalis by broth microdilution method
Enterococcus faecalis [8] = experiment: Antibacterial activity against vancomycin-resistant Enterococcus faecalis by broth microdilution method
Enterococcus faecium [9] = experiment: Antibacterial activity against vancomycin-susceptible Enterococcus faecium by broth microdilution method
Enterococcus faecium [10] = experiment: Antibacterial activity against vancomycin-resistant Enterococcus faecium by broth microdilution method
Staphylococcus aureus [11] = experiment: Selectivity ratio of MIC50 for methicillin-susceptible Staphylococcus aureus to MIC50 for methicillin-resistant Staphylococcus aureus
Staphylococcus aureus [12] = experiment: Antibacterial activity against linezolid-nonsusceptible Staphylococcus aureus by broth microdilution method
[13] = Selectivity ratio of MIC50 for vancomycin-susceptible Enterococcus faecium to MIC50 for vancomycin-susceptible Enterococcus faecalis
[14] = Selectivity ratio of MIC50 for vancomycin-resistant Enterococcus faecium to MIC50 for vancomycin-resistant Enterococcus faecalis
[15] = Selectivity ratio of MIC90 for vancomycin-resistant Enterococcus faecium to MIC90 for vancomycin-resistant Enterococcus faecalis
Staphylococcus aureus [16] = experiment: Selectivity ratio of MBC to MIC for Staphylococcus aureus
Staphylococcus [17] = experiment: Selectivity ratio of MBC to MIC for coagulase-negative Staphylococcus
Enterococcus faecalis [18] = experiment: Selectivity ratio of MBC to MIC for Enterococcus faecalis
Enterococcus faecium [19] = experiment: Selectivity ratio of MBC to MIC for Enterococcus faecium
Staphylococcus [20] = experiment: Antibacterial activity against Staphylococcus by agar dilution technique
Enterococcus = experiment: Antibacterial activity against Enterococcus by agar dilution technique
Staphylococcus [21] = experiment: Antibacterial activity against methicillin-susceptible coagulase-negative Staphylococcus assessed as percent susceptible isolates by broth microdilution method
Staphylococcus [22] = experiment: Antibacterial activity against methicillin-resistant coagulase-negative Staphylococcus assessed as percent susceptible isolates by broth microdilution method
Staphylococcus [23] = experiment: Antibacterial activity against methicillin-resistant coagulase-negative Staphylococcus assessed as percent resistant isolates by broth microdilution method
Enterococcus faecalis [24] = experiment: Antibacterial activity against vancomycin-susceptible Enterococcus faecalis assessed as percent susceptible isolates by broth microdilution method
Enterococcus faecalis [25] = experiment: Antibacterial activity against vancomycin-susceptible Enterococcus faecalis assessed as percent resistant isolates by broth microdilution method
Enterococcus faecalis [26] = experiment: Antibacterial activity against vancomycin-resistant Enterococcus faecalis assessed as percent susceptible isolates by broth microdilution method
Enterococcus faecalis [27] = experiment: Antibacterial activity against vancomycin-resistant Enterococcus faecalis assessed as percent resistant isolates by broth microdilution method
Enterococcus faecium [28] = experiment: Antibacterial activity against vancomycin-susceptible Enterococcus faecium assessed as percent susceptible isolates by broth microdilution method
Enterococcus faecium [29] = experiment: Antibacterial activity against vancomycin-susceptible Enterococcus faecium assessed as percent resistant isolates by broth microdilution method
Enterococcus faecium [30] = experiment: Antibacterial activity against vancomycin-resistant Enterococcus faecium assessed as percent susceptible isolates by broth microdilution method
Enterococcus faecium [31] = experiment: Antibacterial activity against vancomycin-resistant Enterococcus faecium assessed as percent resistant isolates by broth microdilution method

| SMILES | Activity (Staphylococcus aureus [1]) [%] | Activity (Staphylococcus aureus [2]) [%] | MIC50 (Staphylococcus aureus [3]) [µg/mL] | MIC90 (Staphylococcus aureus [3]) [µg/mL] | MIC50 (Staphylococcus aureus [4]) [µg/mL] | MIC90 (Staphylococcus aureus [4]) [µg/mL] | MIC50 (Staphylococcus [5]) [µg/mL] | MIC90 (Staphylococcus [5]) [µg/mL] | MIC50 (Staphylococcus [6]) [µg/mL] | MIC90 (Staphylococcus [6]) [µg/mL] | MIC (Enterococcus faecalis [7]) [µg/mL] | MIC50 (Enterococcus faecalis [7]) [µg/mL] | MIC90 (Enterococcus faecalis [7]) [µg/mL] | MIC (Enterococcus faecalis [8]) [µg/mL] | MIC50 (Enterococcus faecalis [8]) [µg/mL] | MIC90 (Enterococcus faecalis [8]) [µg/mL] | MIC50 (Enterococcus faecium [9]) [µg/mL] | MIC90 (Enterococcus faecium [9]) [µg/mL] | MIC50 (Enterococcus faecium [10]) [µg/mL] | MIC90 (Enterococcus faecium [10]) [µg/mL] | further results |
| --- | --- | --- | --- | --- | --- | --- | --- | --- | --- | --- | --- | --- | --- | --- | --- | --- | --- | --- | --- | --- | --- |
| CCC[C@@H]1C[C@@H](C(=O)N[C@@H]([C@H]2O[C@H](SC)[C@H](O)[C@@H](O)[C@H]2O)[C@H](C)Cl)N(C)C1 [CLINDAMYCIN] | 2.3 | 43.8 |  |  |  |  |  |  |  |  |  |  |  |  |  |  |  |  |  |  |  |
| CC[C@H]1OC(=O)[C@H](C)[C@@H](O[C@H]2C[C@@](C)(OC)[C@@H](O)[C@H](C)O2)[C@H](C)[C@@H](O[C@@H]2O[C@H](C)C[C@H](N(C)C)[C@H]2O)[C@](C)(O)C[C@@H](C)C(=O)[C@H](C)[C@@H](O)[C@]1(C)O [ERYTHROMYCIN] | 16.3 | 87.5 |  |  |  |  |  |  |  |  |  |  |  |  |  |  |  |  |  |  |  |
| CCc1c(Cl)c(O)c(Cl)c(O)c1C(=O)O[C@H]1[C@H](O)[C@H](OC)[C@H](OC/C2=C\C=C\C[C@H](O)/C(C)=C/[C@H](CC)[C@@H](O[C@@H]3OC(C)(C)[C@@H](OC(=O)C(C)C)[C@H](O)[C@@H]3O)/C(C)=C/C(C)=C/C[C@@H]([C@@H](C)O)OC2=O)O[C@@H]1C [FIDAXOMICIN] |  |  | 8 (≈ 7.56 µM) | 8 (≈ 7.56 µM) | 4 (≈ 3.78 µM) | 8 (≈ 7.56 µM) | 2 (≈ 1.89 µM) | 4 (≈ 3.78 µM) | 1 (≈ 0.945 µM) | 4 (≈ 3.78 µM) | 2 (≈ 1.89 µM) | 2 (≈ 1.89 µM) | 4 (≈ 3.78 µM) | 2 (≈ 1.89 µM) | 2 (≈ 1.89 µM) | 2 (≈ 1.89 µM) | 4 (≈ 3.78 µM) | 4 (≈ 3.78 µM) | 4 (≈ 3.78 µM) | 4 (≈ 3.78 µM) | Ratio (Staphylococcus aureus [11]): 2; MIC (Staphylococcus aureus [12]): > 4 µg/mL; Ratio [13]: 2; Ratio [14]: 2; Ratio [15]: 2; Selectivity ratio (Staphylococcus aureus [16]): >=16; Selectivity ratio (Staphylococcus [17]): >=16; Selectivity ratio (Enterococcus faecalis [18]): >=16; Selectivity ratio (Enterococcus faecium [19]): >=16; MIC90 (Staphylococcus [20]): 2 µg/mL (≈ 1.89 µM); MIC90 (Enterococcus): 8 µg/mL (≈ 7.56 µM) |
| C[C@H]1COc2c(N3CCN(C)CC3)c(F)cc3c(=O)c(C(=O)O)cn1c23.C[C@H]1COc2c(N3CCN(C)CC3)c(F)cc3c(=O)c(C(=O)O)cn1c23.O [LEVOFLOXACIN] | 9.3 | 56.3 |  |  |  |  |  |  |  |  |  |  |  |  |  |  |  |  |  |  |  |
| CO[C@H]1/C=C/O[C@@]2(C)Oc3c(C)c(O)c4c(O)c(c(/C=N/N5CCN(C)CC5)c(O)c4c3C2=O)NC(=O)/C(C)=C\C=C\[C@H](C)[C@H](O)[C@@H](C)[C@@H](O)[C@@H](C)[C@H](OC(C)=O)[C@@H]1C [RIFAMPIN] | 2.3 | 18.8 |  |  |  |  |  |  |  |  |  |  |  |  |  |  |  |  |  |  |  |
| CN[C@H](CC(C)C)C(=O)N[C@H]1C(=O)N[C@@H](CC(N)=O)C(=O)N[C@H]2C(=O)N[C@H]3C(=O)N[C@H](C(=O)N[C@H](C(=O)O)c4cc(O)cc(O)c4-c4cc3ccc4O)[C@H](O)c3ccc(c(Cl)c3)Oc3cc2cc(c3O[C@@H]2O[C@H](CO)[C@@H](O)[C@H](O)[C@H]2O[C@H]2C[C@](C)(N)[C@H](O)[C@H](C)O2)Oc2ccc(cc2Cl)[C@H]1O [VANCOMYCIN] | 0 | 15.6 | 1 (≈ 0.69 µM) | 1 (≈ 0.69 µM) | 1 (≈ 0.69 µM) | 16 (≈ 11 µM) | 1 (≈ 0.69 µM) | 2 (≈ 1.38 µM) | 2 (≈ 1.38 µM) | 2 (≈ 1.38 µM) | 1 (≈ 0.69 µM) | 1 (≈ 0.69 µM) | 1 (≈ 0.69 µM) | > 16 | > 16 | > 16 | > 0.5 | 1 (≈ 0.69 µM) | > 16 | > 16 | MIC (Enterococcus faecium [10]): > 16 µg/mL; Activity (Staphylococcus [21]): 100%; Activity (Staphylococcus [22]): 100%; Activity (Staphylococcus [23]): 0%; Activity (Enterococcus faecalis [24]): 100%; Activity (Enterococcus faecalis [25]): 0%; Activity (Enterococcus faecalis [26]): 0%; Activity (Enterococcus faecalis [27]): 100%; Activity (Enterococcus faecium [28]): 100%; Activity (Enterococcus faecium [29]): 0%; Activity (Enterococcus faecium [30]): 0%; Activity (Enterococcus faecium [31]): 100% |

Source: ChEMBL document CHEMBL1255485, “In vitro activity of fidaxomicin (OPT-80) tested against contemporary clinical isolates of Staphylococcus spp. and Enterococcus spp” (2010)
